Test results from the supplement of paper PMC10307832.

What was measured:
Test in all cases: relative viability (nuclei count vs DMSO), 5 days (fraction); higher = more cells survive
[1] = compound: CC(C)C[C@H](NC(=O)[C@H](Cc1ccccc1)NC(=O)c1cnccn1)B(O)O [Bortezomib] + CS(=O)(=O)CCNCc1ccc(-c2ccc3ncnc(Nc4ccc(OCc5cccc(F)c5)c(Cl)c4)c3c2)o1 [Lapatinib] (partner 2 µM)
In short: (§1)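 Five library-drug doses in √10 steps were combined with a fixed anchor-drug dose, or a single drug was given alone, by pin tool to lung cancer cell lines in 1536-well plates the day after seeding. Nuclei were stained and counted after 5 days. Relative viability is the nuclei count in treated wells over that in vehicle wells, taken as the median of duplicate plates.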

[2] = compound: CC(C)C[C@H](NC(=O)[C@H](Cc1ccccc1)NC(=O)c1cnccn1)B(O)O [Bortezomib] + O=C(CCCCCCC(=O)Nc1ccccc1)NO [Vorinostat] (partner 1 µM)
In short: as §1

[3] = compound: CC1=CC(=NN1)NC2=CC(=NC(=N2)/C=C/C3=CC=CC=C3)N4CCN(CC4)C + Nc1ncn([C@H]2C[C@H](O)[C@@H](CO)O2)c(=O)n1 [Decitabine] (partner 2 µM)
In short: as §1

[4] = compound: COC1=CC(c2cc3ccccc3[nH]2)=N/C1=C\c1[nH]c(C)cc1C [Obatoclax] + CS(=O)(=O)CCNCc1ccc(-c2ccc3ncnc(Nc4ccc(OCc5cccc(F)c5)c(Cl)c4)c3c2)o1 [Lapatinib] (partner 2 µM)
In short: as §1

| Cell Line | relative viability ([1]; first compound 0.0002 µM) | relative viability ([1]; first compound 0.000632 µM) | relative viability ([1]; first compound 0.002 µM) | relative viability ([1]; first compound 0.006325 µM) | relative viability ([1]; first compound 0.02 µM) | relative viability ([2]; first compound 0.0002 µM) | relative viability ([2]; first compound 0.000632 µM) | relative viability ([2]; first compound 0.002 µM) | relative viability ([2]; first compound 0.006325 µM) | relative viability ([2]; first compound 0.02 µM) | relative viability ([3]; first compound 0.08 µM) | relative viability ([3]; first compound 0.253 µM) | relative viability ([3]; first compound 0.8 µM) | relative viability ([3]; first compound 2.53 µM) | relative viability ([3]; first compound 8 µM) | relative viability ([4]; first compound 0.01 µM) | relative viability ([4]; first compound 0.03162 µM) | relative viability ([4]; first compound 0.1 µM) | relative viability ([4]; first compound 0.3162 µM) | relative viability ([4]; first compound 1 µM) |
| --- | --- | --- | --- | --- | --- | --- | --- | --- | --- | --- | --- | --- | --- | --- | --- | --- | --- | --- | --- | --- |
| NCI-H1666 | 0.611 | 0.883 | 0.841 | 0.194 | 0.187 | 1.03 | 1.04 | 1.11 | 0.539 | 0.5 | 0.574 | 0.682 | 0.749 | 0.719 | 0.584 | 0.868 | 0.682 | 0.469 | 0.273 | 0.291 |
| NCI-H1437 | 0.655 | 0.878 | 0.806 | 0.0943 | 0.0863 | 0.782 | 0.875 | 0.555 | 0.219 | 0.172 | 0.523 | 0.583 | 0.555 | 0.499 | 0.255 | 0.755 | 0.859 | 0.712 | 0.707 | 0.433 |
| NCI-H1944 | 0.883 | 0.774 | 0.929 | 0.809 | 0.328 | 0.563 | 0.546 | 0.633 | 0.333 | 0.148 | 0.4 | 0.485 | 0.478 | 0.351 | 0.252 | 0.904 | 0.659 | 0.791 | 0.794 | 0.787 |
| SK-MES-1 | 0.487 | 0.45 | 0.506 | 0.423 | 0.214 | 1.08 | 1.1 | 1 | 0.164 | 0.158 | 0.402 | 0.379 | 0.331 | 0.187 | 0.11 | 0.457 | 0.458 | 0.509 | 0.519 | 0.519 |
| NCI-H1355 | 0.948 | 0.906 | 1.2 | 0.6 | 0.134 | 0.632 | 0.657 | 0.696 | 0.416 | 0.121 | 0.305 | 0.346 | 0.351 | 0.356 | 0.201 | 1.06 | 0.886 | 0.838 | 0.862 | 0.921 |
| SK-LU-1 | 0.781 | 0.894 | 0.497 | 0.13 | 0.146 | 0.733 | 0.84 | 0.314 | 0.178 | 0.186 | 0.594 | 0.661 | 0.618 | 0.396 | 0.183 | 0.75 | 0.87 | 0.61 | 0.637 | 0.621 |
| NCI-H1793 | 0.683 | 0.624 | 0.868 | 0.466 | 0.154 | 0.689 | – | 0.682 | 0.381 | 0.125 | 0.488 | 0.554 | 0.43 | 0.127 | 0.123 | 0.802 | 0.68 | 0.61 | 0.717 | 0.836 |
| NCI-H2347 | 0.922 | 1.05 | 0.942 | 0.849 | 0.37 | 0.621 | 0.526 | 0.384 | 0.28 | 0.235 | 0.606 | 0.636 | 0.561 | 0.549 | 0.394 | 0.933 | 0.901 | 0.542 | 0.89 | 0.857 |
